Experimental data taken from article PMC5091913, “Identification and Validation of Small-Gatekeeper Kinases as Drug Targets in Giardia lamblia” (PLoS Neglected Tropical Diseases, 2016).
Read-outs that look alike come from different tables or passages of the source.

How the values were obtained:
Gl50803_16034 = molecular target: T1, Gl50803_16034 (Giardia duodenalis, UniProt A8BHW1); test: thermal shift assay; assay type: binding
T1 construct: gene GL50803_0016034
T1 sequence (A8BHW1 1-432): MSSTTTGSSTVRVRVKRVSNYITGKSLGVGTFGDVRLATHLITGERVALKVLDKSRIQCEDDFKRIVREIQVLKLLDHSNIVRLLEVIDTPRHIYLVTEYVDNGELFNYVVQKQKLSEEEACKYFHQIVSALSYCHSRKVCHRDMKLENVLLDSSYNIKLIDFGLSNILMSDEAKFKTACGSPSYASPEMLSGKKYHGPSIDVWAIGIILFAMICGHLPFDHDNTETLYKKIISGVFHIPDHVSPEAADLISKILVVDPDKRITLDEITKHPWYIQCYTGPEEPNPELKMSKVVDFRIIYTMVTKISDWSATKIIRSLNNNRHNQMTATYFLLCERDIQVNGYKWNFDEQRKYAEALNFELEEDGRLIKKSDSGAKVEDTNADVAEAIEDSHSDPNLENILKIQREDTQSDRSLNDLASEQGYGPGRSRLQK

Gl50803_8445 = molecular target: T2, Gl50803_8445 (Giardia duodenalis, UniProt A8BXP9); test: thermal shift assay; assay type: binding; conditions: also printed as 2°–3°
T2 construct: gene GL50803_008445
T2 sequence (A8BXP9 1-597): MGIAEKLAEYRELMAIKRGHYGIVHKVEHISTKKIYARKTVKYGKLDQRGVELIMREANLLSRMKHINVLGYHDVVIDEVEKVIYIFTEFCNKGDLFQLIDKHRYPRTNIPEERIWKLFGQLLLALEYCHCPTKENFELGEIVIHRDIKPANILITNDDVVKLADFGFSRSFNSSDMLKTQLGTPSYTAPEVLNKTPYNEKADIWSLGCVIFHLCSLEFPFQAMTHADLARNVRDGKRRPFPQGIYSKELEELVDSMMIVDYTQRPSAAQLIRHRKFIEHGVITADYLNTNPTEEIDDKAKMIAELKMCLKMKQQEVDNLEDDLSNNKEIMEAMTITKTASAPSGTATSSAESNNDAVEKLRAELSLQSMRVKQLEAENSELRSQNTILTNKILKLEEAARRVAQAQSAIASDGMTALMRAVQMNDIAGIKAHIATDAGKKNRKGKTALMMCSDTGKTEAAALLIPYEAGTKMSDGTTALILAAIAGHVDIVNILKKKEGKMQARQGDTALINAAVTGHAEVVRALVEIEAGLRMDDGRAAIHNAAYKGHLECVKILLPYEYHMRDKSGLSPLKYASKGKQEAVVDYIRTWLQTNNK

SMILES | ΔTm (Gl50803_16034; also printed as 2°–3°) | ΔTm (Gl50803_8445) | ΔTm (Gl50803_16034)
CCOc1ccc2cc(-c3nc(C(C)(C)C)n4ccnc(N)c34)ccc2c1 [compound 1213, 1213] | ~ 3 ° | ~ 3 ° | 
Nc1ncnc2c1c(-c1ccc(-c3ccccc3)cc1)nn2CC1CCNCC1 [compound 1244, 1244] |  |  | 5.2 °
Nc1ncnc2c1c(-c1ccc3nc(-c4ccccc4)oc3c1)nn2CC1CCNCC1 [compound 1264, 1264] |  |  | 6.5 °
